Test system: GLP-1R-expressing HEK293 cells + Dyngo-4A (phosphoproteome)
Experiment: Phosphoproteomics, GLP-1R-transfected cells with internalization inhibitor Dyngo-4A, 30 min
Format: cell-based, human
Details: 50 μM, 30 min preincubation
Protocol: P values were calculated by a two-sided unpaired t-test.
HEK293 cells (350,000 cells/mL) were transfected in suspension using 3 μg of linear PEI (MW 25,000) per 1 μg of plasmid DNA and seeded onto poly-D-lysine-coated 60 mm dishes at a density of 1,750,000 cells per dish. After a 24-h incubation, cells were washed twice with PBS and placed in starvation media (DMEM with penicillin/streptomycin). After a 48-h incubation, cells were washed twice with HBSS and maintained in the same buffer. […] Cell extracts were prepared as previously described[64]–[66]. In short, 200 μL of the lysis buffer preheated at 95 °C (4% sodium dodecyl sulfate in 50 mM Tris adjusted to pH 8.5) was added to the cells. The samples were then denatured at 95 °C for 10 min, placed on ice and then sonicated using a probe sonicator (3 sec on, 3 sec off pulse, 1 min, 30% amplitude) (Branson). Lysate protein concentration was determined using the Pierce bicinchoninic acid assay kit (Thermo Fisher Scientific) according to the manufacturer’s instructions. The lysates were reduced using 5 mM dithiothreitol for 1 h at room temperature and alkylated using 15 mM iodoacetamide for 1 h at room temperature in the dark. Proteins were precipitated and digested on beads using MagReSyn Amine magnetic beads (ReSyn Biosciences) according to the manufacturer’s instructions. Protein digestion was conducted overnight at 37 °C with lysyl endopeptidase (LysC, Wako) (1:150 LysC/protein, w/w) and trypsin (1:300 trypsin/protein, w/w). 20% TFA, 2 M glycolic acid in 80% ACN were added to the samples at a 1:1 ratio for phosphopeptide enrichment using MagReSyn TiO2 magnetic beads (ReSyn Biosciences) according to the manufacturer’s instructions. The enriched phosphopeptides were dried overnight in a SpeedVac, resuspended into 5% formic acid (FA), desalted using StageTip (Thermo Fisher Scientific) according to the manufacturer’s instructions and dried in a SpeedVac. The experiment was performed in biological triplicates.
All parameters and settings regarding the acquisition of the proteomics data can be found in Supplementary Data 11, 12. For data acquisition, the instrument was set to peptide mode, with a trapping pressure set as low (2mTorr). An EASY-Spray Source (Thermo Fisher Scientific) was used and the column temperature was maintained with the integrated, temperature-controlled heater at 55 °C throughout the experiment. For the data presented in Fig. 5d, the column was heated at 50 °C following the manufacturer’s instructions (IonOpticks).
Acquired raw files were converted to mzML format by MSConvert (version 3.0.21258)[67] applying peak picking of the mass spectra with the vendor-provided algorithm (Thermo Fisher Scientific). The mzML files were analyzed using the FragPipe GUI v18 for both library and DIA search. […] Trypsin with up to 2 missed cleavages was set as digestion enzyme, oxidation of methionine, acetylation of the N-terminus and phosphorylation on serine, threonine and tyrosine (maximal occurrence was set to three) were set as variable modifications. Carbamidomethylation of cysteine residues was set as a fixed modification. Peptide length was restricted to 7 to 50 amino acids, and 500 to 5000 Da. The precursor tolerance was set to ±20 ppm, fragment mass tolerance to 20 ppm and MSBooster was enabled. The resulting peptide-spectrum matches were adjusted to a 1% false discovery rate with Percolator[69] as part of the Philosopher toolkit (v4.4)[70] and converted to a spectra library. DIA files were analyzed by DIA-NN 1.8.1[71], [72] using the previously generated library and monitor-command mode. Peptide quantification was performed based on the fragment elution profiles from the MS2 level (area under the curve).
All further data processing was performed in R (version 4.2.1). Only phosphopeptides with a localization score of at least 0.75 were considered for further analysis. […]

**Q.** How did the “effect on magnitude of agonist-induced phosphorylation events” value turn out when O=C(N/N=C/c1cc(O)c(O)cc1O)c1cc2ccccc2cc1O [Dyngo-4A] was run?
**A.** affected
